Structures are written as SMILES.

2 molecules from patent US20230296491A1, “DEVICE AND METHOD FOR DETERMINING A MECHANICAL PROPERTY OF A PARTICLE” (priority 2020, published 2023) can be followed below.

In test [1] the test system is NIH 3T3 fibroblast cells. Nature of the test: Hydrodynamic stretching deformability of chemically treated NIH 3T3 fibroblasts in the microfluidic system. To be noted: flow rate 10 μl/min, 2 wt % PEO; for mean deformability in the first frame: first frame of the recording cycle (before stretching); for deformability (mean, aspect ratio a/b of the deformed cell): last (15th) frame, CB 150 μM for two hours, fixation 4% formaldehyde for 8 mins. It is filed as cell-based.
Description: On the other hand, an electrical sensing zone is introduced for on-demand single cell imaging. Three electrodes of 20 μm in width, 20 μm intervals are placed before the flow splitting junction, an input voltage of 0.5 V at 5 MHz is applied to the middle electrode and the differential current (Idifferential) is calculated from the two-sided electrodes. The differential configuration can cancel out electrical drifting caused by environmental fluctuation (i.e. flow, temperature, conductivity and pH) and achieve a higher signal-to-noise ratio. As the cell passes through the sensing region, it replaces the conductive medium and causes a change in the electrical current. By that, a pair of opposite peaks is transmitted into an impedance spectroscope. When the peak reaches the trigger level, a trigger signal is generated and fed to the camera. […] Next, for example at a flow rate of 10 μl/min, the camera starts to record 15 frames at a rate of 2,000 frames per second, with an exposure time of 50 μs. The first frame in a recording cycle is used to extract the cell diameter. At this point, the cell remains spherical because it starts to decelerate and is subject to minor stress. In one record cycle, the cell approaches the splitting junction, reaches the channel wall and migrates along the wall for a time span, ensuring the maximum strain is captured at the 15th frame (FIG. 5a). Its aspect ratio evaluates the cell deformability as
where a and b are the length of the long axis and the short axis of the deformed cell, respectively.
(§1) Cytochalasin B (Sigma-Aldrich) treated NIH 3T3 were prepared by incubating cells in 150 μM Cytochalasin B at 37° C. for two hours. After treatment with chemical reagents, cells were washed, centrifuged and resuspended in 2 wt % PEO solution. The viscoelastic solution was prepared by dissolving PEO (Mw=600 kDa, Sigma-Aldrich) powder into DPBS (Thermo Fisher Scientific) with a concentration of 2 wt %.
Samples were continuously introduced into the microfluidic devices using a syringe pump (KD Scientific, Holliston, MA) at a range of flow rates. Simultaneously, the electrical current was received by an impedance spectroscope (HF2IS, Zurich Instruments) and analyzed by a real-time program to send out a trigger signal whenever there was a cell passing through the electrical sensing region. The triggering signal was received by a camera (Photron Inc., San Diego, CA, USA), which started to record 15 frames at a 2,000 frame rate with an exposure time of 50 μs (at a flow rate of 10 μl/min). After the event triggered imaging process was completed, the video was processed offline using a custom-built Python program. […]

In test [2] the test system is NIH 3T3 fibroblast cells. Nature of the test: Fluorescence imaging of actin in live NIH 3T3 cell before and after CB treatment. Type of test: cell-based. To be noted: NIH 3T3, fluorescence images (actin).
Description: (a) Representative fluorescence images (actin, red) of a live cell before (top) and after CB treatment (bottom).
as §1
To test the sensitivity of our system for cellular mechanical phenotyping, we compared the deformability of normal and Cytochalasin B (CB) treated two hours NIH 3T3 fibroblasts. […] In addition, we measured the deformability at a wide flow rate range of 1-30 μl/min. […] This flow rate was then applied to analyze the deformability difference. Furthermore, fixed cells were measured as control of undeformed cells.

In the case of `C=C1[C@@H](C)[C@H]2[C@H](Cc3ccccc3)NC(=O)[C@]23OC(=O)/C=C/[C@H](O)CCC[C@@H](C)C/C=C/[C@H]3[C@@H]1O` [CB, Cytochalasin B], in test [1], the “mean deformability in the first frame” value is 1.16±0.12 and the “deformability (mean, aspect ratio a/b of the deformed cell)” value turned out to be 1.87±0.23. Besides, the “effect on intracellular F-actin (FIG. 8a)” value in test [2] is reported as “intracellular F-actin depolymerization”.
As for `C=O` [formaldehyde], in test [1], the “mean deformability in the first frame” value came out at 1.12±0.06 and the “deformability (mean, aspect ratio a/b of the deformed cell)” value turned out to be 1.29±0.11.
